Converted amounts (≈) assume the structure as drawn. Where two headings read alike, the source gives them in different places.
Tests used:
[1] = test system: Trypanosoma cruzi (Tulahuen C4); test: In vitro anti-T. cruzi activity (β-galactosidase CPRG colorimetric assay in VERO monolayer); type: cell-based; settings: for Selectivity Index Lab B: IC50, VERO/IC50, T. cruzi; for inhibition at 10 µg/mL / IC50: Trypanosoma cruzi, TULAHUEN, Vero; for inhibition at 10 µg/mL: 120 h, 10 μg/mL of each compound, 120 hours, read-out: T. cruzi Inhib. (%)
[2] = test system: M. tuberculosis MDR; test: Anti-tuberculosis bioassay (tetrazolium microplate MIC); type: cell-based; settings: Mycobacterium tuberculosis, read-out: Mycobacterium MIC MDR
[3] = test system: axenic amastigotes of L. amazonensis (strain MHOM/BR/76/LTB-012); settings: Table 8b
[4] = test system: 3T3 cells; test: Cell growth inhibition bioassay (sulforhodamine B); type: cell-based, mouse; settings: 48 h, SRB; for GI50: Mus musculus, NIH3T3, read-out: GI50 in indicated cell line: 3T3
In short: (§1)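 Cells were exposed to compound alongside matched solvent controls, then stained with sulforhodamine B. Percent growth inhibition was calculated from dye absorbance against the control.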

[5] = test system: DU145 cells; test: Cell growth inhibition bioassay (sulforhodamine B); type: cell-based, human; settings: 48 h, SRB; for GI50: Homo sapiens, DU-145, read-out: GI50 in indicated cell line: DU145
In short: (§2)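 Human cancer cells (MCF-7 breast, DU145 and PC3 prostate, H460 large cell lung) were treated with compounds. Growth relative to solvent control was quantified by SRB protein stain.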

[6] = test system: HT-29 cells; test: Cell growth inhibition bioassay (sulforhodamine B); type: cell-based, human; settings: 48 h, SRB; for GI50: Homo sapiens, HT-29, read-out: GI50 in indicated cell line: HT-29
In short: as §1

[7] = test system: MCF-7 cells; test: Cell growth inhibition bioassay (sulforhodamine B); type: cell-based, human; settings: 48 h, SRB; for GI50: Homo sapiens, MCF7, read-out: GI50 in indicated cell line: MCF-7
In short: as §2

[8] = test system: M-14 cells; test: Cell growth inhibition bioassay (sulforhodamine B); type: cell-based, human; settings: 48 h, SRB; for GI50: Homo sapiens, M14, read-out: GI50 in indicated cell line: M-14
In short: as §1

[9] = test system: K562 cells; test: Cell growth inhibition bioassay (sulforhodamine B); type: cell-based, human; settings: 48 h, SRB; for GI50: Homo sapiens, K562, read-out: GI50 in indicated cell line: K562
In short: as §1

[10] = test system: H460 cells; test: Cell growth inhibition bioassay (sulforhodamine B); type: cell-based, human; settings: 48 h, SRB; for GI50: Homo sapiens, NCI-H460, read-out: GI50 in indicated cell line: H460
In short: as §1

[11] = Toxicity to peritoneal macrophages (Trypan Blue count); type: cell-based, BALB/C mouse; settings: BALB/C, mouse
[12] = test system: VERO cells; test: Cell growth inhibition bioassay (sulforhodamine B); type: cell-based, African Green Monkey; settings: 48 h, SRB; for GI50: Chlorocebus sabaeus, Vero, read-out: GI50 in indicated cell line: VERO
In short: as §1

[13] = test system: M. tuberculosis H37Rv; test: Conventional aerobic (MABA) culture assay, luminescence MIC; type: cell-based, Mycobacterium tuberculosis; settings: for MIC: Mycobacterium tuberculosis, 168 h; for Selectivity Index H37Rv: VERO vs MABA MIC
[14] = Cytotoxicity on VERO cells (MTT), anti-T. cruzi study; settings: African green monkey, VERO cells
[15] = test system: axenic amastigotes of L. amazonensis (strain MHOM/BR/76/LTB-012); test: microbe, parasite or virus in culture; settings: Leishmania amazonensis
[16] = test system: M. tuberculosis H37Rv; test: Anti-tuberculosis bioassay (tetrazolium microplate MIC); type: cell-based; settings: Mycobacterium tuberculosis, read-out: Mycobacterium MIC H37Rv, Table 5
[17] = Cytotoxicity VERO cell (Table 6); settings: African green monkey, VERO cells
[18] = test system: peritoneal macrophages; test: Toxicity to peritoneal macrophages (Trypan Blue count); type: cell-based, BALB/C mouse
[19] = test system: VERO cells; test: Cytotoxicity on VERO cells (MTT), anti-T. cruzi study; settings: Lab B
[20] = test system: VERO cell; test: Cytotoxicity VERO cell (Table 6); settings: Table 6
[21] = test system: non-replicating persistence Mycobacterium tuberculosis (NRP-TB); test: Low oxygen recovery assay (LORA); type: cell-based; settings: value in brackets
[22] = Lab A, read-out: T. cruzi IC50 Lab A
[23] = Lab B, read-out: T. cruzi IC50 Lab B
[24] = Table 2, read-out: IC50 - T. cruzi
[25] = IC50 - VERO Cytotoxicity, Table 2
[26] = read-out: IC50 Cytotoxicity Against Amastigotes

In the case of `C(=N/Nc1ncnc2sc3c(c12)CCCC3)/c1ccccc1` [II-01], the “Selectivity Index Lab B” value ([1]; Lab B) is reported as 1.8, the inhibition at 10 µg/mL [1] is reported as 80.1% and the IC50 [1, 22] is reported as 1.9 µg/mL (≈ 6.16 µM). For the same molecule, the IC50 [1, 23] was 4.4 µg/mL (≈ 14.3 µM), the IC50 [1, 24] was 3.92 µg/mL (≈ 12.7 µM) and the MIC [2] was 6.25 µg/mL (≈ 20.3 µM). For the same molecule, the “Selectivity Index” value [3] was 0.6, the GI50 [4] was 6.7 µg/mL (≈ 21.7 µM) and the GI50 [5] was 6.2 µg/mL (≈ 20.1 µM). For the same molecule, the GI50 [6] was 3.8 µg/mL (≈ 12.3 µM), the GI50 [7] was 3.5 µg/mL (≈ 11.3 µM) and the GI50 [8] was 5.6 µg/mL (≈ 18.2 µM). The GI50 [9] was 4.1 µg/mL (≈ 13.3 µM), the GI50 [10] was 5.6 µg/mL (≈ 18.2 µM) and the IC50 at 48 h ([11]; Cytotoxicity Macrophages IC50) was 8.7 µM. For the same molecule, the GI50 [12] was 5.3 µg/mL (≈ 17.2 µM), the MIC ([13]; aerobic, 7 days, H37Rv) was 23.4 µg/mL (≈ 75.9 µM) and the “Selectivity Index H37Rv” value [13] was 0.5. For the same molecule, the IC50 ([14]; Cytotoxicity VERO Lab B, Lab B) was 8 µg/mL (≈ 25.9 µM), the IC50 [14, 25] was 29 µg/mL (≈ 94 µM) and the IC50 [15, 26] was 3.2 µM. For the same molecule, the IC50 ([15]; read-out: L. amazonensis IC50) was 13.5 µM, the MIC [16] was 6.25 µg/mL (≈ 20.3 µM) and the IC50 [17] was 11.1 µg/mL (≈ 36 µM).
In the case of `C(=Cc1ccccc1)C=NNc1ncnc2sc3c(c12)CCCC3` [II-04], the “T. cruzi IC50 Lab A” value ([1]; Lab A) is reported as 0.4 µg/mL, the “T. cruzi IC50 Lab B” value ([1]; Lab B) is reported as 0.5 µg/mL and the IC50 ([3]; read-out: L. amazonensis IC50) is reported as 5.5 µM. The “GI50 in indicated cell line: 3T3” value [4] was 1.5 µg/mL (≈ 4.49 µM), the “GI50 in indicated cell line: DU145” value [5] was 1.8 µg/mL (≈ 5.38 µM) and the “GI50 in indicated cell line: HT-29” value [6] was 2.7 µg/mL (≈ 8.07 µM). The “GI50 in indicated cell line: MCF-7” value [7] was 0.7 µg/mL (≈ 2.09 µM), the “GI50 in indicated cell line: M-14” value [8] was 1.6 µg/mL (≈ 4.78 µM) and the “GI50 in indicated cell line: K562” value [9] was 0.5 µg/mL (≈ 1.5 µM). The “GI50 in indicated cell line: H460” value [10] was 0.7 µg/mL (≈ 2.09 µM), the IC50 [18] was 0.6 µM and the “GI50 in indicated cell line: VERO” value [12] was 0.6 µg/mL (≈ 1.79 µM). The “MIC MABA” value ([13]; aerobic, 7 days, H37Rv) was 11.7 µg/mL (≈ 35 µM), the “Cytotoxicity VERO Lab B” value [19] was 7.0 and the “Cytotoxicity VERO cell” value [20] was 1.2 µg/mL.
With `COc1ccc(/C=N\Nc2ncnc3sc4c(c23)CCCC4)cc1` [II-10] the “Selectivity Index Lab B” value ([1]; Lab B) was 1.1, the IC50 [1, 23] was 5.4 µg/mL (≈ 16 µM) and the “Selectivity Index” value [3] was 1.3. It also gave a GI50 [4] of 5 µg/mL (≈ 14.8 µM), a GI50 [5] of 7.8 µg/mL (≈ 23 µM) and a GI50 [6] of 5.9 µg/mL (≈ 17.4 µM). The GI50 [7] was 4.2 µg/mL (≈ 12.4 µM), the GI50 [8] was 5.5 µg/mL (≈ 16.3 µM) and the GI50 [9] was 4.7 µg/mL (≈ 13.9 µM). The GI50 [10] was 5.8 µg/mL (≈ 17.1 µM), the MIC ([21]; Mycobacterium tuberculosis, anaerobic 10 days, 28 hour recovery) was 9.1 µg/mL (≈ 26.9 µM) and the “Selectivity Index LORA” value ([21]; VERO vs LORA MIC) was 8.5. For the same molecule, the IC50 at 48 h ([11]; Cytotoxicity Macrophages IC50) was 21.6 µM, the GI50 [12] was 6.4 µg/mL (≈ 18.9 µM) and the MIC ([13]; aerobic, 7 days, H37Rv) was 24.1 µg/mL (≈ 71.2 µM). For the same molecule, the “Selectivity Index H37Rv” value [13] was 3.2, the IC50 ([14]; Cytotoxicity VERO Lab B, Lab B) was 6 µg/mL (≈ 17.7 µM) and the IC50 ([15]; read-out: L. amazonensis IC50) was 16.1 µM. For the same molecule, the IC50 [17] was 76.7 µg/mL (≈ 227 µM).
For `COc1cc(/C=N\Nc2ncnc3sc4c(c23)CCCC4)cc(OC)c1OC` [II-14], the inhibition at 10 µg/mL [1] was 2%, the IC50 [1, 22] was 3 µg/mL (≈ 7.53 µM) and the MIC [2] was > 25 µg/mL. For the same molecule, the “Selectivity Index” value [3] was 1.2, the GI50 [4] was 9 µg/mL (≈ 22.6 µM) and the GI50 [5] was 9 µg/mL (≈ 22.6 µM). The GI50 [6] was 4.6 µg/mL (≈ 11.5 µM), the GI50 [7] was 4.2 µg/mL (≈ 10.5 µM) and the GI50 [8] was 6.2 µg/mL (≈ 15.6 µM). For the same molecule, the GI50 [9] was 1.9 µg/mL (≈ 4.77 µM), the GI50 [10] was 11.3 µg/mL (≈ 28.4 µM) and the IC50 at 48 h ([11]; Cytotoxicity Macrophages IC50) was 3.6 µM. For the same molecule, the IC50 at 48 h ([11]; IC50 Cytotoxicity Against Macrophages) was > 10 µM, the GI50 [12] was 9.7 µg/mL (≈ 24.3 µM) and the MIC ([13]; aerobic, 7 days, H37Rv) was > 100 µg/mL. The IC50 ([14]; Cytotoxicity VERO Lab B, Lab B) was 11 µg/mL (≈ 27.6 µM), the IC50 [15, 26] was 10.5 µM and the IC50 ([15]; read-out: L. amazonensis IC50) was 2.9 µM. For the same molecule, the MIC [16] was > 25 µg/mL.
`COc1cc(/C=N\Nc2ncnc3sc4c(c23)CCCC4)cc(OC)c1O` [II-16] showed an inhibition at 10 µg/mL [1] of 58.6%, an IC50 [1, 22] of 4.9 µg/mL (≈ 12.7 µM) and an IC50 [1, 24] of 8.74 µg/mL (≈ 22.7 µM). For the same molecule, the MIC [2] was > 25 µg/mL, the “Selectivity Index” value [3] was 3.0 and the GI50 [4] was 10.5 µg/mL (≈ 27.3 µM). For the same molecule, the GI50 [5] was 10.5 µg/mL (≈ 27.3 µM), the GI50 [6] was > 62.5 µg/mL and the GI50 [7] was > 62.5 µg/mL. For the same molecule, the GI50 [8] was > 62.5 µg/mL, the GI50 [9] was > 62.5 µg/mL and the GI50 [10] was > 62.5 µg/mL. The IC50 at 48 h ([11]; Cytotoxicity Macrophages IC50) was 46.4 µM, the GI50 [12] was > 62.5 µg/mL and the MIC ([13]; aerobic, 7 days, H37Rv) was > 100 µg/mL. For the same molecule, the IC50 [14, 25] was 124 µg/mL (≈ 323 µM), the IC50 [15, 26] was 21.9 µM and the IC50 ([15]; read-out: L. amazonensis IC50) was 15.7 µM. For the same molecule, the MIC [16] was > 25 µg/mL.

Reference: US9061984B2 (University of Louisville Research Foundation, Inc., priority 2008, dated 2015)
